Target: human α2δ-1 subunit of Cav2.2 calcium channel (Homo sapiens (Human), UniProt P54289)
Experiment: Binding assay to human α2δ-1 subunit of Cav2.2 calcium channel ([3H]-Gabapentin)
Conditions: binding to α2δ-1, [3H]-Gabapentin; read-out: Ki (nM) α2δ-1
Method in brief: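 [3H]-gabapentin binding, 60 min at 27° C; nonspecific binding defined with 10 μM pregabalin. Terminated by filtration on PEI-presoaked GF/C filters, ice-cold 50 mM Tris-HCl pH 7.4 washes, then scintillation counting.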

human α2δ-1 subunit of Cav2.2 calcium channel, sequence (P54289 25-1103): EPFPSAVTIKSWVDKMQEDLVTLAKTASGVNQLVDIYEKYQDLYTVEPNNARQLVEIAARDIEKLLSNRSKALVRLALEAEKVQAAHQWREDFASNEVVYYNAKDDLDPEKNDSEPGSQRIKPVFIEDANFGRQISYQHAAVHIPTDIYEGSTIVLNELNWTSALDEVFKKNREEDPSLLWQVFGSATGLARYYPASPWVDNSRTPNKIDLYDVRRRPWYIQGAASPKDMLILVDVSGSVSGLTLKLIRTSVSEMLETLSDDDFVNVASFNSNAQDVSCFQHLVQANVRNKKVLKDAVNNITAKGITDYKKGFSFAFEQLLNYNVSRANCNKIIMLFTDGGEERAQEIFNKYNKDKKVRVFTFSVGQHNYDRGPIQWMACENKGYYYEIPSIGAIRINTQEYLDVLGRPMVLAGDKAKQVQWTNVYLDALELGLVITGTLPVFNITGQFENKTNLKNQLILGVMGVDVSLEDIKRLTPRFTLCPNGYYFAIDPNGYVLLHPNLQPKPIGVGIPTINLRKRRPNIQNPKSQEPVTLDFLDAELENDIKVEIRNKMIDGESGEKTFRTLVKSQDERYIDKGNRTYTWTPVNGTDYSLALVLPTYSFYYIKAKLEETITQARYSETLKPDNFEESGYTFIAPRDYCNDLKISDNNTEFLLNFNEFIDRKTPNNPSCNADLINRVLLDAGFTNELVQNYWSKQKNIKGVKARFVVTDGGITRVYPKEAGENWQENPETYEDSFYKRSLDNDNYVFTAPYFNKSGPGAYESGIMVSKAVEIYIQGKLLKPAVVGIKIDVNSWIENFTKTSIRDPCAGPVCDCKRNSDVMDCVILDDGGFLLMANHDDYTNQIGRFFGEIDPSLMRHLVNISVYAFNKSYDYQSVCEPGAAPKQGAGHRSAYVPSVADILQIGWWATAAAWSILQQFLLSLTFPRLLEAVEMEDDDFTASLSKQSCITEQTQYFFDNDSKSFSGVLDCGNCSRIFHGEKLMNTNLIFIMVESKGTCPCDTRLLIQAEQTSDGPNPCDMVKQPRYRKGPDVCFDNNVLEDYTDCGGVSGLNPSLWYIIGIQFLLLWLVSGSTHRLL

Ki	SMILES
500 to 3000 nM	CCNc1ncc2c(n1)N(C)CCN(c1cccc(Br)c1)C2=O [Example 311, 6-(3-bromophenyl)-2-(ethylamino)-9-methyl-6,7,8,9-tetrahydro-5H-pyrimido[4,5-e][1,4]diazepin-5-one]
> 3000 nM	CCNc1ncc2c(n1)N(C)CCN(Cc1ccccc1COC(CNC)c1ccccc1)C2=O (stereo not drawn) [Example 412, 2-(ethylamino)-9-methyl-6-(2-((2-(methylamino)-1-phenylethoxy)methyl)benzyl)-6,7,8,9-tetrahydro-5H-pyrimido[4,5-e][1,4]diazepin-5-one]
> 3000 nM	CCNc1ncc2c(n1)N(C)CCN(c1cccc(CCCN(C)C(=O)OC(C)(C)C)c1)C2=O [Example 91, tert-butyl (3-(3-(2-(ethylamino)-9-methyl-5-oxo-5,7,8,9-tetrahydro-6H-pyrimido[4,5-e][1,4]diazepin-6-yl)phenyl)propyl) (methyl)carbamate]
> 3000 nM	CCNc1ncc2c(n1)N(C)CCN(Cc1ccccc1COC(CCNC)c1ccccc1)C2=O (stereo not drawn) [Example 404, 2-(ethylamino)-9-methyl-6-(2-((3-(methylamino)-1-phenylpropoxy)methyl)benzyl)-6,7,8,9-tetrahydro-5H-pyrimido[4,5-e][1,4]diazepin-5-one]
> 3000 nM	CNCC(Oc1ccccc1N1CCN(C)c2nc(SC)ncc2C1=O)c1ccccc1 (stereo not drawn) [Example 319, 9-methyl-6-(2-(2-(methylamino)-1-phenylethoxy)phenyl)-2-(methylthio)-6,7,8,9-tetrahydro-5H-pyrimido[4,5-e][1,4]diazepin-5-one]
> 3000 nM	Cc1nnc(-c2cccc(N3CCN(C)c4nc(NCc5ccccc5)ncc4C3=O)c2)o1 [Example 102, 2-(benzylamino)-9-methyl-6-(3-(5-methyl-1,3,4-oxadiazol-2-yl)phenyl)-6,7,8,9-tetrahydro-5H-pyrimido[4,5-e][1,4]diazepin-5-one]
> 3000 nM	CNCCC(Oc1cccc(CN2CCN(C)c3ncncc3C2=O)c1)c1ccccc1 (stereo not drawn) [Example 429, 9-methyl-6-(3-(3-(methylamino)-1-phenylpropoxy)benzyl)-6,7,8,9-tetrahydro-5H-pyrimido[4,5-e][1,4]diazepin-5-one]
< 100 nM	CCNc1ncc2c(n1)N(C)CCN(c1cccc(-c3nnc(C)o3)c1)C2=O [Example 97, 2-(ethylamino)-9-methyl-6-(3-(5-methyl-1,3,4-oxadiazol-2-yl)phenyl)-6,7,8,9-tetrahydro-5H-pyrimido[4,5-e][1,4]diazepin-5-one]
500 to 3000 nM	CCNc1ncc2c(n1)N(C)CCN(c1cccc(COC(C)CCNC)c1)C2=O (stereo not drawn) [Example 191, 2-(ethylamino)-9-methyl-6-(3-(((4-(methylamino)butan-2-yl)oxy)methyl)phenyl)-6,7,8,9-tetrahydro-5H-pyrimido[4,5-e][1,4]diazepin-5-one]
> 3000 nM	CNCC(Oc1ccccc1CN1CCN(C)c2ncncc2C1=O)c1ccccc1 (stereo not drawn) [Example 432, 9-methyl-6-(2-(2-(methylamino)-1-phenylethoxy)benzyl)-6,7,8,9-tetrahydro-5H-pyrimido[4,5-e][1,4]diazepin-5-one]
> 3000 nM	CCNc1ncc2c(n1)N(C)CCN(c1cccc(-n3cc(C(OCC)OCC)nn3)c1)C2=O [Example 119, 6-(3-(4-(diethoxymethyl)-1H-1,2,3-triazol-1-yl)phenyl)-2-(ethylamino)-9-methyl-6,7,8,9-tetrahydro-5H-pyrimido[4,5-e][1,4]diazepin-5-one]
> 3000 nM	CCNc1ncc2c(n1)N(C)CCN(Cc1ccccc1OC(CCNC)c1ccccc1)C2=O (stereo not drawn) [Example 409, 2-(ethylamino)-9-methyl-6-(2-(3-(methylamino)-1-phenylpropoxy)benzyl)-6,7,8,9-tetrahydro-5H-pyrimido[4,5-e][1,4]diazepin-5-one]
> 3000 nM	CCNc1ncc2c(n1)N(C)CCN(c1cccc(OC(CCN(C)C(=O)OC(C)(C)C)c3cccnc3)c1)C2=O (stereo not drawn) [Example 129, tert-butyl (3-(3-(2-(ethylamino)-9-methyl-5-oxo-5,7,8,9-tetrahydro-6H-pyrimido[4,5-e][1,4]diazepin-6-yl)phenoxy)-3-(pyridin-3-yl)propyl)(methyl) carbamate]
> 3000 nM	CCNc1ncc2c(n1)N(C)CCN(c1cccc(OC(CNC(=O)OC(C)(C)C)c3ccccc3)c1)C2=O (stereo not drawn) [Example 73, tert-butyl (2-(3-(2-(ethylamino)-9-methyl-5-oxo-5,7,8,9-tetrahydro-6H-pyrimido[4,5-e][1,4]diazepin-6-yl)phenoxy)-2-phenylethyl)carbamate]
100 to 500 nM	CCNc1ncc2c(n1)N(C)CCN(c1cccc(-n3cc(CN4CCC(c5ccccc5)(N(C)C)CC4)nn3)c1)C2=O [Example 291, 6-(3-(4-((4-(dimethylamino)-4-phenylpiperidin-1-yl)methyl)-1H-1,2,3-triazol-1-yl)phenyl)-2-(ethylamino)-9-methyl-6,7,8,9-tetrahydro-5H-pyrimido[4,5-e] [1,4]diazepin-5-one]
> 3000 nM	CNCCC(OCc1ccccc1N1CCN(C)c2nc(SC)ncc2C1=O)c1ccccc1 (stereo not drawn) [Example 318, 9-methyl-6-(2-((3-(methylamino)-1-phenylpropoxy)methyl)phenyl)-2-(methylthio)-6,7,8,9-tetrahydro-5H-pyrimido[4,5-e][1,4]diazepin-5-one]
> 3000 nM	CSc1ncc2c(n1)N(C)CCN(c1cccc(CCCN(C)C(=O)OC(C)(C)C)c1)C2=O [Example 23, tert-butyl methyl(3-(3-(9-methyl-2-(methylthio)-5-oxo-5,7,8,9-tetrahydro-6H-pyrimido[4,5-e][1,4]diazepin-6-yl)phenyl)propyl) carbamate]
500 to 3000 nM	CCNc1ncc2c(n1)N(C)CCN(c1cccc(OCCN3CCOCC3)c1)C2=O [Example 440, 2-(ethylamino)-9-methyl-6-(3-(2-morpholinoethoxy)phenyl)-6,7,8,9-tetrahydro-5H-pyrimido[4,5-e][1,4]diazepin-5-one]
> 3000 nM	CCNc1ncc2c(n1)N(C)CCN(c1cccc(COC(CCN(C)C(=O)OC(C)(C)C)c3ccccc3)c1)C2=O (stereo not drawn) [Example 77, tert-butyl (3-((3-(2-(ethylamino)-9-methyl-5-oxo-5,7,8,9-tetrahydro-6H-pyrimido[4,5-e][1,4]diazepin-6-yl)benzyl)oxy)-3-phenylpropyl)(methyl) carbamate]

SMILES	Ki
CN(CC[C@H](Oc1cccc(N2CCN(C)c3cc(Cl)ncc3C2=O)c1)c1cccs1)C(=O)OCC[Si](C)(C)C [Example 298, 2-(trimethylsilyl)ethyl (S)-(3-(3-(8-chloro-1-methyl-5-oxo-1,2,3,5-tetrahydro-4H-pyrido[4,3-e][1,4]diazepin-4-yl)phenoxy)-3-(thiophen-2-yl)propyl)(methyl) carbamate]	> 3000 nM
CSc1ncc2c(n1)N(C)CCN(c1cccc(OC(CCN(C)C(=O)OCC[Si](C)(C)C)c3cccs3)c1)C2=O (stereo not drawn) [Example 51, 2-(trimethyl-silyl)ethyl methyl(3-(3-(9-methyl-2-(methylthio)-5-oxo-5,7,8,9-tetrahydro-6H-pyrimido[4,5-e][1,4]diazepin-6-yl)phenoxy)-3-(thiophen-2-yl)propyl) carbamate]	> 3000 nM
